Measured values from patent publication US8247211B2, “Glycopeptide antibiotics” (American Cyanamid Company, priority 2001, dated 2012).
In brackets after ≈: the same amount, converted by molar mass.

Key:
Test in all cases: In vitro antibacterial evaluation: minimum inhibitory concentration (MIC), broth dilution method
Type in all cases: cell-based
Enterococcus sp. = conditions: 18 hours at 35° C.
How it was run: (§1)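 MIC read as lowest drug level preventing visible growth. Organisms at 5×10^5 CFU/mL were exposed to a 64-0.06 μg/mL dilution series in Muller-Hinton II […] following NCCLS broth dilution standard M7-A2.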

Escherichia coli = conditions: 18 hours at 35° C.
How it was run: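 First, organisms are seeded at 5×10^5 CFU/mL into Muller-Hinton II […]. Next, antibiotic is applied across 64-0.06 μg/mL by broth dilution (NCCLS M7-A2). Finally, the lowest inhibitory concentration is recorded as MIC.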

Staphylococcus sp. = test system: Staphylococcus sp.
How it was run: as §1

Streptococcus sp. = conditions: 18 hours at 35° C.
How it was run: as §1

[1] = broth dilution, inoculum 5×10^5 CFU/mL

CC(c1ccccc1)C1NC(=O)CNC(=O)C(CO)NC(=O)C(C(O)C2CNC(=N)N2C2OC(CO)C(O)C(O)C2O)NC(=O)C(C(O)C2CNC(=N)N2)NC(=O)C(Cc2ccc(OC3OC(CO)C(OC4OC5COC6(CCCCC6)OC5C(O)C4O)C(O)C3O)cc2)NC1=O (stereo not drawn) [Example 203, Cyclo[glycyl-β-methylphenylalanyl-O-[4-O-(4,6-O-cyclohexylidene-4-O-hexopyranosyl)hexopyranosyl]tyrosyl-3-(2-iminoimidazolidin-4-yl)seryl-3-(3-hexopyranosyl-2-iminoimidazolidin-4-yl)serylseryl]]
MIC Enterococcus avium (GC 4558) (Enterococcus sp.; Enterococcus avium (GC 4558)): 8 µg/mL (≈ 5.82 µM)
MIC Enterococcus faecalis (ATCC 29212) (Enterococcus sp.; Enterococcus faecalis (ATCC 29212)): 8 µg/mL (≈ 5.82 µM)
MIC Enterococcus faecalis (GC 2242) (Enterococcus sp.; Enterococcus faecalis (GC 2242)): 4 µg/mL (≈ 2.91 µM)
MIC Enterococcus faecalis (GC 2691) (Enterococcus sp.; Enterococcus faecalis (GC 2691)): 8 µg/mL (≈ 5.82 µM)
MIC Enterococcus faecalis (GC 3059) (Enterococcus sp.; Enterococcus faecalis (GC 3059)): 8 µg/mL (≈ 5.82 µM)
MIC Enterococcus faecalis (GC 4552) (Enterococcus sp.; Enterococcus faecalis (GC 4552)): 8 µg/mL (≈ 5.82 µM)
MIC Enterococcus faecalis (GC 4553) (Enterococcus sp.; Enterococcus faecalis (GC 4553)): 8 µg/mL (≈ 5.82 µM)
MIC Enterococcus faecalis (GC 4554) (Enterococcus sp.; Enterococcus faecalis (GC 4554)): 8 µg/mL (≈ 5.82 µM)
MIC Enterococcus faecalis (GC 6189) (Enterococcus sp.; Enterococcus faecalis (GC 6189)): 8 µg/mL (≈ 5.82 µM)
MIC Enterococcus faecium (GC 2243) (Enterococcus sp.; Enterococcus faecium (GC 2243)): 8 µg/mL (≈ 5.82 µM)
MIC Enterococcus faecium (GC 4556) (Enterococcus sp.; Enterococcus faecium (GC 4556)): 4 µg/mL (≈ 2.91 µM)
MIC Enterococcus faecium (GC 4557) (Enterococcus sp.; Enterococcus faecium (GC 4557)): 4 µg/mL (≈ 2.91 µM)
MIC Enterococcus avium (GC 4558) (Enterococcus sp.; [1]): 8 µg/mL (≈ 5.82 µM)
MIC Enterococcus faecalis (ATCC 29212) (Enterococcus sp.; [1]): 8 µg/mL (≈ 5.82 µM)
MIC Enterococcus faecalis (GC 2242) (Enterococcus sp.; [1]): 4 µg/mL (≈ 2.91 µM)
MIC Enterococcus faecalis (GC 2691) (Enterococcus sp.; [1]): 8 µg/mL (≈ 5.82 µM)
MIC Enterococcus faecalis (GC 3059) (Enterococcus sp.; [1]): 8 µg/mL (≈ 5.82 µM)
MIC Enterococcus faecalis (GC 4552) (Enterococcus sp.; [1]): 8 µg/mL (≈ 5.82 µM)
MIC Enterococcus faecalis (GC 4553) (Enterococcus sp.; [1]): 8 µg/mL (≈ 5.82 µM)
MIC Enterococcus faecalis (GC 4554) (Enterococcus sp.; [1]): 8 µg/mL (≈ 5.82 µM)
MIC Enterococcus faecalis (GC 6189) (Enterococcus sp.; [1]): 8 µg/mL (≈ 5.82 µM)
MIC Enterococcus faecium (GC 2243) (Enterococcus sp.; [1]): 8 µg/mL (≈ 5.82 µM)
MIC Enterococcus faecium (GC 4556) (Enterococcus sp.; [1]): 4 µg/mL (≈ 2.91 µM)
MIC Enterococcus faecium (GC 4557) (Enterococcus sp.; [1]): 4 µg/mL (≈ 2.91 µM)
MIC Escherichia coli (ATCC 25922) (Escherichia coli; Escherichia coli (ATCC 25922)): 64 µg/mL (≈ 46.5 µM)
MIC Escherichia coli (GC 4559) (Escherichia coli; Escherichia coli (GC 4559)): 32 µg/mL (≈ 23.3 µM)
MIC Escherichia coli (GC 4560) (Escherichia coli; Escherichia coli (GC 4560)): 2 µg/mL (≈ 1.45 µM)
MIC Staphylococcus aureus (ATCC 29213) (Staphylococcus sp.; strain ATCC 29213): 1 µg/mL (≈ 0.727 µM)
MIC Staphylococcus aureus (GC 1131) (Staphylococcus sp.; strain GC 1131): 2 µg/mL (≈ 1.45 µM)
MIC Staphylococcus aureus (GC 3051) (Staphylococcus sp.; strain GC 3051): 2 µg/mL (≈ 1.45 µM)
MIC Staphylococcus aureus (GC 3053) (Staphylococcus sp.; strain GC 3053): 4 µg/mL (≈ 2.91 µM)
MIC Staphylococcus aureus (GC 4541) (Staphylococcus sp.; strain GC 4541): 1 µg/mL (≈ 0.727 µM)
MIC Staphylococcus aureus (GC 4542) (Staphylococcus sp.; strain GC 4542): 1 µg/mL (≈ 0.727 µM)
MIC Staphylococcus aureus-SMITH (GC 4543) (Staphylococcus sp.; strain GC 4543): 2 µg/mL (≈ 1.45 µM)
MIC Staphylococcus aureus (GC 4544) (Staphylococcus sp.; strain GC 4544): 2 µg/mL (≈ 1.45 µM)
MIC Staphylococcus aureus (GC 4545) (Staphylococcus sp.; strain GC 4545): 1 µg/mL (≈ 0.727 µM)
MIC Staphylococcus haemolyticus (GC 4546) (Staphylococcus sp.; strain GC 4546): 1 µg/mL (≈ 0.727 µM)
MIC Coagulase Negative Staphylococcus (GC 4547) (Staphylococcus sp.; strain GC 4547): 2 µg/mL (≈ 1.45 µM)
MIC Coagulase Negative Staphylococcus (GC 4548) (Staphylococcus sp.; strain GC 4548): 1 µg/mL (≈ 0.727 µM)
MIC Coagulase Negative Staphylococcus (GC 4549) (Staphylococcus sp.; strain GC 4549): 1 µg/mL (≈ 0.727 µM)
MIC Coagulase Negative Staphylococcus (GC 4551) (Staphylococcus sp.; strain GC 4551): 2 µg/mL (≈ 1.45 µM)
MIC Coagulase Negative Staphylococcus (GC 6257) (Staphylococcus sp.; strain GC 6257): 1 µg/mL (≈ 0.727 µM)
MIC Streptococcus agalactiae (GC 4564) (Streptococcus sp.; Streptococcus agalactiae (GC 4564)): 1 µg/mL (≈ 0.727 µM)
MIC Streptococcus pneumoniae (ATCC 6301) (Streptococcus sp.; Streptococcus pneumoniae (ATCC 6301)): 0.5 µg/mL (≈ 0.364 µM)
MIC Streptococcus pneumoniae (GC 1894) (Streptococcus sp.; Streptococcus pneumoniae (GC 1894)): 0.12 µg/mL (≈ 0.0872 µM)
MIC Streptococcus pneumoniae (GC 4565) (Streptococcus sp.; Streptococcus pneumoniae (GC 4565)): 0.25 µg/mL (≈ 0.182 µM)
MIC Streptococcus pyogenes (GC 4563) (Streptococcus sp.; Streptococcus pyogenes (GC 4563)): 0.5 µg/mL (≈ 0.364 µM)
MIC Streptococcus agalactiae (GC 4564) (Streptococcus sp.; [1]): 1 µg/mL (≈ 0.727 µM)
MIC Streptococcus pneumoniae (ATCC 6301) (Streptococcus sp.; [1]): 0.5 µg/mL (≈ 0.364 µM)
MIC Streptococcus pneumoniae (GC 1894) (Streptococcus sp.; [1]): 0.12 µg/mL (≈ 0.0872 µM)
MIC Streptococcus pneumoniae (GC 4565) (Streptococcus sp.; [1]): 0.25 µg/mL (≈ 0.182 µM)
MIC Streptococcus pyogenes (GC 4563) (Streptococcus sp.; [1]): 0.5 µg/mL (≈ 0.364 µM)
